One test has as its target T1, TBK1 (Homo sapiens, UniProt Q9UHD2).
T1 sequence (Q9UHD2 1-729): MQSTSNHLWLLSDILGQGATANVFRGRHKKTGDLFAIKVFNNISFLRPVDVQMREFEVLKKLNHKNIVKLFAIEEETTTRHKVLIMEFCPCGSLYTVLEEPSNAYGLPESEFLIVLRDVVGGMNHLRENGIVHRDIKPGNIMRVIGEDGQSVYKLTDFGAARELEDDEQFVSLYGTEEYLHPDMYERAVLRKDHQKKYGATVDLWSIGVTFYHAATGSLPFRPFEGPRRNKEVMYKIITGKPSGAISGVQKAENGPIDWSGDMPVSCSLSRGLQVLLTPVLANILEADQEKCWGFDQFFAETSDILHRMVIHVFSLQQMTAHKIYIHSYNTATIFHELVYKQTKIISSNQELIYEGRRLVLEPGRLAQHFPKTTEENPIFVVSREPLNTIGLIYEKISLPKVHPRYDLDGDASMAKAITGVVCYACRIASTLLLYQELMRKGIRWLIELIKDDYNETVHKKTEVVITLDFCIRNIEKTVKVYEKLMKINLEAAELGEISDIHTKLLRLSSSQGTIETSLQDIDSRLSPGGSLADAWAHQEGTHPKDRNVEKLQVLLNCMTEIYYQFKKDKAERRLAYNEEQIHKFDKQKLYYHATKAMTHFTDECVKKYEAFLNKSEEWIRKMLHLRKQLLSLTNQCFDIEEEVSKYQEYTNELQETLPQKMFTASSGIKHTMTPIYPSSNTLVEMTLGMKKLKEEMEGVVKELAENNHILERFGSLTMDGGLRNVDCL
The test can be described thus: TBK Biochemical Assay. The conditions noted are these: read-out: TBK1 IC50. On the procedure:
Example 482: TBK Biochemical Assay
Test compounds were transferred into Labcyte polypropylene 384 well plates (P055-25) and diluted to 3 mM using DMSO. 3 mM test compounds were dispensed using Labcyte ECHO dose response module into Greiner 784075 plates (columns 3-12 and 13-22, 10 point 1:4) so that high concentration was 30 uM final. 100 uM of a reference compound (1 uM final high concentration). Backfilling was performed if necessary so that all wells contain 1% DMSO final: […]
add 75 nl DMSO/well into columns 1, 2 and 24 using Labcyte Echo. add 75 nl 1.0 mM staurosporine/well into column 23 using Labcyte Echo ([…]) add 4.5 ul enzyme/well using multidrop dispenser add 3 ul substrate/well using multidrop dispenser incubate at 25° C. in Heidolph incubator for 90 min. add 7.5 ul 2× stop buffer using multidrop dispenser read on labchip ez reader II using TBK1.job
(§1) Raw data files were opened in the Caliper LabChip Reviewer program (Version 3.0.265.0 SP2) and peak assignments were adjusted to reflect “substrate first” with the software's post-run analysis options. A spline-fit baseline was applied using the software's analysis algorithm.

In another test the target is T2, IKKε (Homo sapiens, UniProt Q14164).
T2 sequence (Q14164 1-716): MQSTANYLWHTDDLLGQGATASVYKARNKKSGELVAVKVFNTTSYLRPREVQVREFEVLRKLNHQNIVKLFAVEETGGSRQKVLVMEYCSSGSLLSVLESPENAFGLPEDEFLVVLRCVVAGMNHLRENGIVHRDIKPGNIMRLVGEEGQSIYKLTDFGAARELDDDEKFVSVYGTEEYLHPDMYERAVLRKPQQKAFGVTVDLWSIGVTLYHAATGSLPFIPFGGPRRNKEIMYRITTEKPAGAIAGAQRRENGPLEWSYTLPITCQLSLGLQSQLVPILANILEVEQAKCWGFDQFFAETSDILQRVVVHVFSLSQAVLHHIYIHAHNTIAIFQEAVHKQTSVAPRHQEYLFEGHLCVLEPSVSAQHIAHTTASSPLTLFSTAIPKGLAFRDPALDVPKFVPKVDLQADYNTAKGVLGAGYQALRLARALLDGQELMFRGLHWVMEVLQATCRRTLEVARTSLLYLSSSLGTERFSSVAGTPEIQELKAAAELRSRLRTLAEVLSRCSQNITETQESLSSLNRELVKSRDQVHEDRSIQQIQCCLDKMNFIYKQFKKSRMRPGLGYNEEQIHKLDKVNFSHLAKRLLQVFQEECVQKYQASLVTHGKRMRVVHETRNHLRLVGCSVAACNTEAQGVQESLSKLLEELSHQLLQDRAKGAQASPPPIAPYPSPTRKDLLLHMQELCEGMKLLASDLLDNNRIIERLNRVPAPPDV
As to the kind of experiment: IKKe Biochemical Assay. The conditions noted are these: read-out: IKKε IC50. How it is done:
Test compounds were transferred into Labcyte polypropylene 384 well plates (P055-25) and diluted to 3 mM using DMSO. 3 mM test compounds were dispensed using Labcyte ECHO dose response module into (Greiner 784075 plates (columns 3-12 and 13-22, 10 point 1:4) so that high concentration was 30 uM final. 100 uM of a reference compound (1 uM final high concentration). Backfilling was performed if necessary so that all wells contain 1% DMSO final: […]
add 75 nl DMSO/well into columns 1, 2 and 24 using Labcyte Echo. add 75 nl 1.0 mM staurosporine/well into column 23 using Labcyte Echo (10 uM final) add 4.5 ul enzyme/well using multidrop dispenser add 3 ul substrate/well using multidrop dispenser incubate at 25° C. for 90 min. add 7.5 ul 2× stop buffer read on labchip ez reader II using IKKε. job
as §1

Molecules are shown by their SMILES. Counter-ions that a name gives are not always drawn.

For `C[C@@H]1COC[C@H](C)[C@H]1Oc1ccc(-c2ccnc3cc(-c4ccc(C(=O)N(C)C)cc4)oc23)cc1C#N` (single isomer, unassigned) [Compound 219, 4-(7-(3-cyano-4-(3,5-dimethyl-tetrahydro-2H-pyran-4-yloxy)phenyl)furo[3,2-b]pyridin-2-yl)-N,N-dimethylbenzamide hydrochloride], the concentration for half-maximal inhibition (IC50) on TBK1 and at IKKε was 100 to 1000 nM each time. Take `C[C@@H]1COC[C@@H](C)C1Oc1ccc(-c2ccnc3cc(-c4ccc(C(=O)N(C)C)cc4)oc23)cc1C#N` (single isomer, unassigned) [Compound 220, 4-(7-(3-cyano-4-(3,5-dimethyl-tetrahydro-2H-pyran-4-yloxy)phenyl)furo[3,2-b]pyridin-2-yl)-N,N-dimethylbenzamide hydrochloride]: the IC50 on TBK1 and at IKKε was 100 to 1000 nM throughout.

With `C[C@@H]1COC[C@H](C)[C@@H]1Oc1ccc(-c2ccnc3cc(-c4ccc(C(=O)N(C)C)cc4)oc23)cc1C#N` (single isomer, unassigned) [Compound 221, 4-(7-(3-cyano-4-(3,5-dimethyl-tetrahydro-2H-pyran-4-yloxy)phenyl)furo[3,2-b]pyridin-2-yl)-N,N-dimethylbenzamide hydrochloride], the IC50 on TBK1 and on IKKε was 100 to 1000 nM in each case. On to `COc1cc(C(=O)N(C)C)ccc1-c1cc2nccc(-c3ccc(OC4[C@H](C)COC[C@H]4C)c(C#N)c3)c2o1` (single isomer, unassigned) [Compound 231, 4-(7-(3-cyano-4-(3,5-dimethyl-tetrahydro-2H-pyran-4-yloxy)phenyl)furo[3,2-b]pyridin-2-yl)-3-methoxy-N,N-dimethylbenzamide], for which the IC50 on TBK1 and at IKKε was below 100 nM throughout. Take `COc1cc(C(=O)N[C@@H]2CCNC[C@@H]2F)ccc1-c1cc2nccc(-c3ccc(NC4CCOCC4)c(C#N)c3)c2o1` (single isomer, unassigned) [Compound 251, 4-(7-(3-cyano-4-(tetrahydro-2H-pyran-4-ylamino)phenyl)furo[3,2-b]pyridin-2-yl)-N-(3-fluoropiperidin-4-yl)-3-methoxybenzamide hydrochloride]: the IC50 at TBK1 and at IKKε was below 100 nM throughout. Consider `COc1cc(C(=O)N[C@@H]2CCNC[C@@H]2F)ccc1-c1cc2nccc(-c3cc(F)c(NC4CCOCC4)c(C#N)c3)c2o1` (single isomer, unassigned) [Compound 253, 4-(7-(3-cyano-5-fluoro-4-(tetrahydro-2H-pyran-4-ylamino)phenyl)furo[3,2-b]pyridin-2-yl)-N-(3-fluoropiperidin-4-yl)-3-methoxybenzamide hydrochloride], for which the 50% inhibitory concentration (IC50) at TBK1 and at IKKε was below 100 nM each time. As for `COc1cc(C(=O)N[C@@H]2CCNC[C@@H]2F)ccc1-c1cc2nccc(-c3cc(F)c(NC4CCOCC4)c(C#N)c3)c2o1` (single isomer, unassigned) [Compound 254, 4-(7-(3-cyano-5-fluoro-4-(tetrahydro-2H-pyran-4-ylamino)phenyl)furo[3,2-b]pyridin-2-yl)-N-(3-fluoropiperidin-4-yl)-3-methoxybenzamide hydrochloride], the concentration for half-maximal inhibition (IC50) on TBK1 was 100 to 1000 nM; on IKKε, below 100 nM. The corresponding values for `CN(C)C(=O)c1ccc(-c2cc3nccc(-c4ccc(N5CC[C@H](F)C5)c(C#N)c4)c3o2)nc1` (single isomer, unassigned) [Compound 272, 6-(7-(3-cyano-4-(3-fluoropyrrolidin-1-yl)phenyl)furo[3,2-b]pyridin-2-yl)-N,N-dimethylnicotinamide hydrochloride] are below 100 nM and below 100 nM. In the same order, the values of `CN(C)C(=O)c1ccc(-c2cc3nccc(-c4ccc(N5CC[C@H](F)C5)c(C#N)c4)c3o2)nc1` (single isomer, unassigned) [Compound 273, 6-(7-(3-cyano-4-(3-fluoropyrrolidin-1-yl)phenyl)furo[3,2-b]pyridin-2-yl)-N,N-dimethylnicotinamide hydrochloride] are below 100 nM and below 100 nM. The corresponding values for `N#Cc1cc(-c2ccnc3cc(-c4ccc(C(=O)N[C@@H]5CCNC[C@@H]5F)cc4F)oc23)ccc1NC1CCOCC1` (stereo in doubt) [Compound 252, 4-(7-(3-cyano-4-(tetrahydro-2H-pyran-4-ylamino)phenyl)furo[3,2-b]pyridin-2-yl)-3-fluoro-N-(3-fluoropiperidin-4-yl)benzamide hydrochloride] are 100 to 1000 nM and 100 to 1000 nM. Consider `COc1cc(C(=O)N2C3CCC2COC3)ccc1-c1cc2nccc(-c3ccc(OC4CCOCC4)c(C#N)c3)c2o1` [Compound 2, 5-{2-[2-Methoxy-4-(3-oxa-8-aza-bicyclo[3.2.1]octane-8-carbonyl)-phenyl]-furo[3,2-b]pyridin-7-yl}-2-(tetrahydro-pyran-4-yloxy)-benzonitrile], for which the IC50 on TBK1 and at IKKε was below 100 nM throughout. Turning to `COc1cc(C(=O)N2CC3CCC2CO3)ccc1-c1cc2nccc(-c3ccc(OC4CCOCC4)c(C#N)c3)c2o1` (centres unmarked) [Compound 4, 5-{2-[2-Methoxy-4-(2-oxa-5-aza-bicyclo[2.2.2]octane-5-carbonyl)-phenyl]-furo[3,2-b]pyridin-7-yl}-2-(tetrahydro-pyran-4-yloxy)-benzonitrile], the half-maximal inhibitory concentration (IC50) on TBK1 and at IKKε was below 100 nM in each case. As for `COc1cc(C(=O)N2CC3CC(C2)O3)ccc1-c1cc2nccc(-c3ccc(OC4CCOCC4)c(C#N)c3)c2o1` [Compound 6, 5-{2-[2-Methoxy-4-(6-oxa-3-aza-bicyclo[3.1.1]heptane-3-carbonyl)-phenyl]-furo[3,2-b]pyridin-7-yl}-2-(tetrahydro-pyran-4-yloxy)-benzonitrile], the half-maximal inhibitory concentration (IC50) at TBK1 and at IKKε was below 100 nM each time.

For the molecule `COc1cc(C(=O)N(C)C)ccc1-c1cc2nccc(-c3ccc(OC4CCOCC4OCc4ccccc4)c(C#N)c3)c2o1` (centres unmarked) [Compound 211], on IKKε, the IC50 fell in the range of 100 to 1000 nM.

Regarding `CC1CC(Oc2ccc(-c3ccnc4cc(-c5ccc(C(=O)N(C)C)cc5)oc34)cc2C#N)CC(C)O1` (centres unmarked) [Compound 213, 4-{7-[3-Cyano-4-(2,6-dimethyl-tetrahydro-pyran-4-yloxy)-phenyl]-furo[3,2-b]pyridin-2-yl}-N,N-dimethyl-benzamide], the concentration for half-maximal inhibition (IC50) on IKKε is above 5000 nM.

For the molecule `CN(C)C(=O)c1cnc(-c2cc3nccc(-c4cc(F)c(NC5CCOCC5)c(C#N)c4)c3o2)c(F)c1` [Compound 248, 6-(7-(3-cyano-5-fluoro-4-(tetrahydro-2H-pyran-4-ylamino)phenyl)furo[3,2-b]pyridin-2-yl)-5-fluoro-N,N-dimethylnicotinamide], the IC50 at IKKε was 100 to 1000 nM.

A word on the IC50: it is the concentration that gives 50% inhibition.

The record behind these values is patent publication US10428080B2, “TBK/IKK inhibitor compounds and uses thereof” (Merck Patent GmbH, priority 2015, dated 2019).
